In the supplement of paper PMC10733146:

Key:
Test in all cases: viability relative to DMSO control (fraction); higher = less drug effect (more viable cells)
Conditions in all cases: 48 h
Vindesine = compound: CC[C@]1(O)C[C@@H]2CN(CCc3c([nH]c4ccccc34)[C@@](C(=O)OC)(c3cc4c(cc3OC)N(C)[C@H]3[C@@](O)(C(N)=O)[C@H](O)[C@]5(CC)C=CCN6CC[C@]43[C@@H]65)C2)C1 [Vindesine]
In short: (§1)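 In 384-well plates with compounds pre-plated at five concentrations (one well per concentration), primary mononuclear tumour cells were plated at 4 × 10^4 cells per well. The cells came from blood or bone marrow by Ficoll isolation or from processed lymph node, and were used fresh or cryopreserved. Culture ran for 48 h at 37 °C and 5% CO2 in RPMI-1640 containing penicillin/streptomycin, L-glutamine and human serum. Viability was read as CellTiter-Glo luminescence, normalised to the median of 16 inner DMSO wells.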

Roscovitine = compound: CC[C@H](CO)Nc1nc(NCc2ccccc2)c2ncn(C(C)C)c2n1 [Roscovitine]
In short: as §1

Everolimus = compound: CO[C@H]1C[C@@H]2CC[C@@H](C)[C@@](O)(O2)C(=O)C(=O)N2CCCC[C@H]2C(=O)O[C@H]([C@H](C)C[C@@H]2CC[C@@H](OCCO)[C@H](OC)C2)CC(=O)[C@H](C)/C=C(\C)[C@@H](O)[C@@H](OC)C(=O)[C@H](C)C[C@H](C)/C=C/C=C/C=C/1C [Everolimus]
In short: as §1

[1] = compound: O=C(Nc1ccc2[nH]nc(-c3ccncc3)c2c1)[C@@H]1CCN(CC(=O)N2CCN(c3ccc(-c4ncccn4)cc3)CC2)C1
In short: as §1

Etoposide = compound: COc1cc([C@@H]2c3cc4c(cc3[C@@H](O[C@@H]3O[C@@H]5CO[C@@H](C)O[C@H]5[C@H](O)[C@H]3O)[C@H]3COC(=O)[C@H]23)OCO4)cc(OC)c1O [Etoposide]
In short: as §1

Midostaurin hydrate = compound: CO[C@@H]1[C@H](N(C)C(=O)c2ccccc2)C[C@H]2O[C@]1(C)n1c3ccccc3c3c4c(c5c6ccccc6n2c5c31)C(=O)NC4 [Midostaurin hydrate]
In short: as §1

Duvelisib = compound: C[C@H](Nc1ncnc2nc[nH]c12)c1cc2cccc(Cl)c2c(=O)n1-c1ccccc1 [Duvelisib]
In short: as §1

Idasanutlin (RS7388) = compound: COc1cc(C(=O)O)ccc1NC(=O)[C@@H]1N[C@@H](CC(C)(C)C)[C@](C#N)(c2ccc(Cl)cc2F)[C@H]1c1cccc(Cl)c1F [Idasanutlin (RS7388)]
In short: as §1

Chlorambucil = compound: O=C(O)CCCc1ccc(N(CCCl)CCCl)cc1 [Chlorambucil]
In short: as §1

Entospletinib = compound: c1cn2cc(-c3ccc4cn[nH]c4c3)nc(Nc3ccc(N4CCOCC4)cc3)c2n1 [Entospletinib]
In short: as §1

Bendamustine = compound: Cn1c(CCCC(=O)O)nc2cc(N(CCCl)CCCl)ccc21 [Bendamustine]
In short: as §1

Tofacitinib = compound: C[C@@H]1CCN(C(=O)CC#N)C[C@@H]1N(C)c1ncnc2[nH]ccc12 [Tofacitinib]
In short: as §1

SGC 0946 = compound: CC(C)N(CCCNC(=O)Nc1ccc(C(C)(C)C)cc1)C[C@H]1O[C@@H](n2cc(Br)c3c(N)ncnc32)[C@H](O)[C@@H]1O [SGC 0946]
In short: as §1

Pomalidomide = compound: Nc1cccc2c1C(=O)N(C1CCC(=O)NC1=O)C2=O [Pomalidomide]
In short: as §1

primary AML patient cells (S056)
viability (Vindesine; 0.016 µM): 0.915
viability (Vindesine; 0.08 µM): 0.467
viability (Vindesine; 0.4 µM): 0.242
viability (Vindesine; 2 µM): 0.206
viability (Vindesine; 10 µM): 0.177
viability (Roscovitine; 0.032 µM): 0.781
viability (Roscovitine; 0.16 µM): 0.741
viability (Roscovitine; 0.8 µM): 0.743
viability (Roscovitine; 4 µM): 0.627
viability (Roscovitine; 20 µM): 0.302
viability (Everolimus; 0.0032 µM): 0.965
viability (Everolimus; 0.016 µM): 0.92
viability (Everolimus; 0.08 µM): 0.901
viability (Everolimus; 0.4 µM): 0.62
viability (Everolimus; 2 µM): 0.812
viability ([1]; 0.008 µM): 0.673
viability ([1]; 0.04 µM): 0.609
viability ([1]; 0.2 µM): 0.527
viability ([1]; 1 µM): 0.455
viability ([1]; 5 µM): 0.337
viability (Etoposide; 0.032 µM): 0.875
viability (Etoposide; 0.16 µM): 0.948
viability (Etoposide; 0.8 µM): 0.714
viability (Etoposide; 4 µM): 0.598
viability (Etoposide; 20 µM): 0.392
viability (Midostaurin hydrate; 0.024 µM): 0.6
viability (Midostaurin hydrate; 0.12 µM): 0.507
viability (Midostaurin hydrate; 0.6 µM): 1.43
viability (Midostaurin hydrate; 3 µM): 1.64
viability (Midostaurin hydrate; 15 µM): 1.28
viability (Duvelisib; 0.0016 µM): 1.02
viability (Duvelisib; 0.008 µM): 0.696
viability (Duvelisib; 0.04 µM): 0.852
viability (Duvelisib; 0.2 µM): 0.737
viability (Duvelisib; 1 µM): 0.686
viability (Idasanutlin (RS7388); 0.032 µM): 0.574
viability (Idasanutlin (RS7388); 0.16 µM): 0.333
viability (Idasanutlin (RS7388); 0.8 µM): 0.147
viability (Idasanutlin (RS7388); 4 µM): 0.0924
viability (Idasanutlin (RS7388); 20 µM): 0.0823
viability (Chlorambucil; 0.032 µM): 1.13
viability (Chlorambucil; 0.16 µM): 1.03
viability (Chlorambucil; 0.8 µM): 1.04
viability (Chlorambucil; 4 µM): 0.942
viability (Chlorambucil; 20 µM): 0.287
viability (Entospletinib; 0.024 µM): 1.05
viability (Entospletinib; 0.12 µM): 0.788
viability (Entospletinib; 0.6 µM): 0.981
viability (Entospletinib; 3 µM): 0.99
viability (Entospletinib; 15 µM): 0.979
viability (Bendamustine; 0.032 µM): 1.02
viability (Bendamustine; 0.16 µM): 0.816
viability (Bendamustine; 0.8 µM): 1.06
viability (Bendamustine; 4 µM): 0.779
viability (Bendamustine; 20 µM): 0.878
viability (Tofacitinib; 0.024 µM): 0.85
viability (Tofacitinib; 0.12 µM): 0.802
viability (Tofacitinib; 0.6 µM): 0.689
viability (Tofacitinib; 3 µM): 0.657
viability (Tofacitinib; 15 µM): 0.448
viability (SGC 0946; 0.024 µM): 0.869
viability (SGC 0946; 0.12 µM): 0.736
viability (SGC 0946; 0.6 µM): 0.996
viability (SGC 0946; 3 µM): 0.96
viability (SGC 0946; 15 µM): 0.825
viability (Pomalidomide; 0.0032 µM): 0.921
viability (Pomalidomide; 0.016 µM): 0.823
viability (Pomalidomide; 0.08 µM): 0.967
viability (Pomalidomide; 0.4 µM): 0.791
viability (Pomalidomide; 2 µM): 0.908

primary B-PLL patient cells (S016)
viability (Vindesine; 0.016 µM): 0.255
viability (Vindesine; 0.08 µM): 0.199
viability (Vindesine; 0.4 µM): 0.222
viability (Vindesine; 2 µM): 0.164
viability (Vindesine; 10 µM): 0.0777
viability (Roscovitine; 0.032 µM): 0.927
viability (Roscovitine; 0.16 µM): 1.05
viability (Roscovitine; 0.8 µM): 1.02
viability (Roscovitine; 4 µM): 1.23
viability (Roscovitine; 20 µM): 1.09
viability (Everolimus; 0.0032 µM): 0.735
viability (Everolimus; 0.016 µM): 0.647
viability (Everolimus; 0.08 µM): 0.665
viability (Everolimus; 0.4 µM): 0.659
viability (Everolimus; 2 µM): 0.697
viability ([1]; 0.008 µM): 1.02
viability ([1]; 0.04 µM): 0.919
viability ([1]; 0.2 µM): 0.953
viability ([1]; 1 µM): 0.94
viability ([1]; 5 µM): 0.869
viability (Etoposide; 0.032 µM): 1.14
viability (Etoposide; 0.16 µM): 0.886
viability (Etoposide; 0.8 µM): 0.762
viability (Etoposide; 4 µM): 0.362
viability (Etoposide; 20 µM): 0.0933
viability (Midostaurin hydrate; 0.024 µM): 0.999
viability (Midostaurin hydrate; 0.12 µM): 0.949
viability (Midostaurin hydrate; 0.6 µM): 1.05
viability (Midostaurin hydrate; 3 µM): 0.925
viability (Midostaurin hydrate; 15 µM): 0.616
viability (Duvelisib; 0.0016 µM): 0.788
viability (Duvelisib; 0.008 µM): 0.821
viability (Duvelisib; 0.04 µM): 0.708
viability (Duvelisib; 0.2 µM): 0.675
viability (Duvelisib; 1 µM): 0.674
viability (Idasanutlin (RS7388); 0.032 µM): 0.719
viability (Idasanutlin (RS7388); 0.16 µM): 0.923
viability (Idasanutlin (RS7388); 0.8 µM): 0.333
viability (Idasanutlin (RS7388); 4 µM): 0.0502
viability (Idasanutlin (RS7388); 20 µM): 0.0489
viability (Chlorambucil; 0.032 µM): 0.939
viability (Chlorambucil; 0.16 µM): 0.916
viability (Chlorambucil; 0.8 µM): 0.933
viability (Chlorambucil; 4 µM): 0.601
viability (Chlorambucil; 20 µM): 0.088
viability (Entospletinib; 0.024 µM): 0.927
viability (Entospletinib; 0.12 µM): 0.919
viability (Entospletinib; 0.6 µM): 0.934
viability (Entospletinib; 3 µM): 0.947
viability (Entospletinib; 15 µM): 0.864
viability (Bendamustine; 0.032 µM): 0.965
viability (Bendamustine; 0.16 µM): 0.953
viability (Bendamustine; 0.8 µM): 1.04
viability (Bendamustine; 4 µM): 0.864
viability (Bendamustine; 20 µM): 0.496
viability (Tofacitinib; 0.024 µM): 0.953
viability (Tofacitinib; 0.12 µM): 0.991
viability (Tofacitinib; 0.6 µM): 0.994
viability (Tofacitinib; 3 µM): 1.06
viability (Tofacitinib; 15 µM): 1.03
viability (SGC 0946; 0.024 µM): 1
viability (SGC 0946; 0.12 µM): 1.04
viability (SGC 0946; 0.6 µM): 0.946
viability (SGC 0946; 3 µM): 0.922
viability (SGC 0946; 15 µM): 0.435
viability (Pomalidomide; 0.0032 µM): 1.17
viability (Pomalidomide; 0.016 µM): 1.3
viability (Pomalidomide; 0.08 µM): 1.15
viability (Pomalidomide; 0.4 µM): 0.926
viability (Pomalidomide; 2 µM): 0.962

primary AML patient cells (S002)
viability (Vindesine; 0.016 µM): 1.16
viability (Vindesine; 0.08 µM): 1.12
viability (Vindesine; 0.4 µM): 1.08
viability (Vindesine; 2 µM): 0.965
viability (Vindesine; 10 µM): 0.884
viability (Roscovitine; 0.032 µM): 0.867
viability (Roscovitine; 0.16 µM): 0.907
viability (Roscovitine; 0.8 µM): 0.899
viability (Roscovitine; 4 µM): 0.896
viability (Roscovitine; 20 µM): 0.466
viability (Everolimus; 0.0032 µM): 0.867
viability (Everolimus; 0.016 µM): 0.955
viability (Everolimus; 0.08 µM): 0.815
viability (Everolimus; 0.4 µM): 0.813
viability (Everolimus; 2 µM): 0.757
viability ([1]; 0.008 µM): 0.618
viability ([1]; 0.04 µM): 0.484
viability ([1]; 0.2 µM): 0.426
viability ([1]; 1 µM): 0.394
viability ([1]; 5 µM): 0.39
viability (Etoposide; 0.032 µM): 0.974
viability (Etoposide; 0.16 µM): 1.08
viability (Etoposide; 0.8 µM): 0.923
viability (Etoposide; 4 µM): 0.955
viability (Etoposide; 20 µM): 0.453
viability (Midostaurin hydrate; 0.024 µM): 1.04
viability (Midostaurin hydrate; 0.12 µM): 0.936
viability (Midostaurin hydrate; 0.6 µM): 1.07
viability (Midostaurin hydrate; 3 µM): 1.25
viability (Midostaurin hydrate; 15 µM): 1.14
viability (Duvelisib; 0.0016 µM): 1.09
viability (Duvelisib; 0.008 µM): 0.989
viability (Duvelisib; 0.04 µM): 0.732
viability (Duvelisib; 0.2 µM): 0.698
viability (Duvelisib; 1 µM): 0.471
viability (Idasanutlin (RS7388); 0.032 µM): 0.502
viability (Idasanutlin (RS7388); 0.16 µM): 0.416
viability (Idasanutlin (RS7388); 0.8 µM): 0.298
viability (Idasanutlin (RS7388); 4 µM): 0.239
viability (Idasanutlin (RS7388); 20 µM): 0.209
viability (Chlorambucil; 0.032 µM): 0.972
viability (Chlorambucil; 0.16 µM): 0.848
viability (Chlorambucil; 0.8 µM): 0.945
viability (Chlorambucil; 4 µM): 0.622
viability (Chlorambucil; 20 µM): 0.299
viability (Entospletinib; 0.024 µM): 1.03
viability (Entospletinib; 0.12 µM): 1.03
viability (Entospletinib; 0.6 µM): 0.895
viability (Entospletinib; 3 µM): 1.08
viability (Entospletinib; 15 µM): 1.07
viability (Bendamustine; 0.032 µM): 1.11
viability (Bendamustine; 0.16 µM): 1.2
viability (Bendamustine; 0.8 µM): 1.14
viability (Bendamustine; 4 µM): 1.09
viability (Bendamustine; 20 µM): 0.724
viability (Tofacitinib; 0.024 µM): 0.794
viability (Tofacitinib; 0.12 µM): 0.765
viability (Tofacitinib; 0.6 µM): 0.82
viability (Tofacitinib; 3 µM): 0.703
viability (Tofacitinib; 15 µM): 0.656
viability (SGC 0946; 0.024 µM): 1.1
viability (SGC 0946; 0.12 µM): 1.16
viability (SGC 0946; 0.6 µM): 0.833
viability (SGC 0946; 3 µM): 1.16
viability (SGC 0946; 15 µM): 0.9
viability (Pomalidomide; 0.0032 µM): 0.799
viability (Pomalidomide; 0.016 µM): 1.14
viability (Pomalidomide; 0.08 µM): 1.17
viability (Pomalidomide; 0.4 µM): 0.843
viability (Pomalidomide; 2 µM): 1.04
